Laboratory results from PubChem BioAssay AID2060343 (Molecular Pharmacology Branch, DTP, NCI, 2025).

Tested on: 138582-337-R-J1-PDC spheroids with HUVEC/MSC, viability
Assay: Anticancer human tumor 138582-337-R-J1-PDC patient-derived Merkel cell tumor cell line growth inhibition [IpAb]
Details: for IC50: curve of first compound; for viability, T/C: stronger effect = lower value
In short: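 Spheroids of 60% malignant cells, 25% HUVEC and 15% MSC were exposed to targeted agents combined with ipatasertib or abemaciclib. Doses started at or near clinical Cmax (10 microM when unknown) and fell in half-log steps.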

[1] = second compound 0.01 µM, first compound 0.0316 µM
[2] = second compound 0.01 µM, first compound 0.1 µM
[3] = second compound 0.01 µM, first compound 0.316 µM
[4] = second compound 0.01 µM, first compound 1 µM
[5] = second compound 0.0316 µM, first compound 0.0316 µM
[6] = second compound 0.0316 µM, first compound 0.1 µM
[7] = second compound 0.0316 µM, first compound 0.316 µM
[8] = second compound 0.0316 µM, first compound 1 µM
[9] = second compound 0.1 µM, first compound 0.0316 µM
[10] = second compound 0.1 µM, first compound 0.1 µM
[11] = second compound 0.1 µM, first compound 0.316 µM
[12] = second compound 0.1 µM, first compound 1 µM
[13] = second compound 0.316 µM, first compound 0.0316 µM
[14] = second compound 0.316 µM, first compound 0.1 µM
[15] = second compound 0.316 µM, first compound 0.316 µM
[16] = second compound 0.316 µM, first compound 1 µM
[17] = second compound 1 µM, first compound 0.0316 µM
[18] = second compound 1 µM, first compound 0.1 µM
[19] = second compound 1 µM, first compound 0.316 µM
[20] = second compound 1 µM, first compound 1 µM
[21] = second compound 0.01 µM, first compound 3.16 µM
[22] = second compound 0.01 µM, first compound 10 µM
[23] = second compound 0.0316 µM, first compound 3.16 µM
[24] = second compound 0.0316 µM, first compound 10 µM
[25] = second compound 0.1 µM, first compound 3.16 µM
[26] = second compound 0.1 µM, first compound 10 µM
[27] = second compound 0.316 µM, first compound 3.16 µM
[28] = second compound 0.316 µM, first compound 10 µM
[29] = second compound 1 µM, first compound 3.16 µM
[30] = second compound 1 µM, first compound 10 µM
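Further: spheroids exposed to compounds for seven days.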
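Wherever viability, T/C is given: 100% = DMSO vehicle control viability.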

| SMILES | IC50 (second compound 0.01 µM) | IC50 (second compound 0.0316 µM) | IC50 (second compound 0.1 µM) | IC50 (second compound 0.316 µM) | IC50 (second compound 1 µM) | viability, T/C [1] | viability, T/C [2] | viability, T/C [3] | viability, T/C [4] | viability, T/C [5] | viability, T/C [6] | viability, T/C [7] | viability, T/C [8] | viability, T/C [9] | viability, T/C [10] | viability, T/C [11] | viability, T/C [12] | viability, T/C [13] | viability, T/C [14] | viability, T/C [15] | other results |
| --- | --- | --- | --- | --- | --- | --- | --- | --- | --- | --- | --- | --- | --- | --- | --- | --- | --- | --- | --- | --- | --- |
| COc1c(OCCCN2CCOCC2)ccc2c3n(c(=NC(=O)c4cnc(N)nc4)nc12)CCN3 + CCN1CCN(Cc2ccc(Nc3ncc(F)c(-c4cc(F)c5nc(C)n(C(C)C)c5c4)n3)nc2)CC1 | 48.1 nM | 42.1 nM | 43.2 nM | 42.7 nM | 31.3 nM | 58.5% | 33.7% | 15.2% | 1.9% | 56.7% | 35.1% | 14.7% | 1.66% | 55.4% | 32.8% | 11.6% | 1.67% | 57.5% | 31.4% | 11.8% | viability, T/C (second compound 0.01 µM, first compound 0.00316 µM): 91.8%; viability, T/C (second compound 0.01 µM, first compound 0.01 µM): 80.9%; viability, T/C (second compound 0.0316 µM, first compound 0.00316 µM): 93.2%; viability, T/C (second compound 0.0316 µM, first compound 0.01 µM): 73.2%; viability, T/C (second compound 0.1 µM, first compound 0.00316 µM): 84.1%; viability, T/C (second compound 0.1 µM, first compound 0.01 µM): 76.5%; viability, T/C (second compound 0.316 µM, first compound 0.00316 µM): 85.9%; viability, T/C (second compound 0.316 µM, first compound 0.01 µM): 74.2%; viability, T/C [16]: 2.07%; viability, T/C (second compound 1 µM, first compound 0.00316 µM): 98.3%; viability, T/C (second compound 1 µM, first compound 0.01 µM): 72%; viability, T/C [17]: 56.6%; viability, T/C [18]: 18.8%; viability, T/C [19]: 5.6%; viability, T/C [20]: 2.69% |
| Cc1nc(NC(=O)N2CCCC2C(N)=O)sc1-c1ccnc(C(C)(C)C(F)(F)F)c1 (stereo not given) + CCN1CCN(Cc2ccc(Nc3ncc(F)c(-c4cc(F)c5nc(C)n(C(C)C)c5c4)n3)nc2)CC1 | 1850 nM | 1410 nM | 1140 nM | 1010 nM | 462 nM | 95.2% | 81.4% | 73.2% | 59% | 94.1% | 82.3% | 69% | 55.4% | 88.1% | 78.7% | 59.2% | 56.4% | 90.8% | 74.8% | 69.7% | viability, T/C [21]: 45.4%; viability, T/C [22]: 13.7%; viability, T/C [23]: 40.1%; viability, T/C [24]: 18.2%; viability, T/C [25]: 35.2%; viability, T/C [26]: 9.25%; viability, T/C [16]: 48.2%; viability, T/C [27]: 32.1%; viability, T/C [28]: 6.45%; viability, T/C [17]: 89.3%; viability, T/C [18]: 84.2%; viability, T/C [19]: 54.4%; viability, T/C [20]: 35.1%; viability, T/C [29]: 10.7%; viability, T/C [30]: 1.63% |
| Cn1nccc1Nc1nccc(-c2ccn(C(CO)c3ccc(Cl)c(F)c3)c(=O)c2)n1 (stereo not given) + CCN1CCN(Cc2ccc(Nc3ncc(F)c(-c4cc(F)c5nc(C)n(C(C)C)c5c4)n3)nc2)CC1 | > 10000 nM | > 10000 nM | > 10000 nM | > 10000 nM | > 10000 nM | 99.8% | 92.3% | 90.1% | 94.8% | 88.3% | 90.5% | 82.7% | 91.9% | 79.9% | 89.8% | 79.6% | 90.2% | 89.8% | 82.7% | 88.6% | viability, T/C [21]: 107%; viability, T/C [22]: 154%; viability, T/C [23]: 107%; viability, T/C [24]: 149%; viability, T/C [25]: 108%; viability, T/C [26]: 134%; viability, T/C [16]: 96%; viability, T/C [27]: 124%; viability, T/C [28]: 173%; viability, T/C [17]: 106%; viability, T/C [18]: 96%; viability, T/C [19]: 83.2%; viability, T/C [20]: 97.6%; viability, T/C [29]: 142%; viability, T/C [30]: 178% |
